Test results as given in patent US20070135499A1 (Aerie Pharmaceuticals, Inc., priority 2005, published 2007).

Legend:
[1] = test system: porcine trabecular meshwork (PTM) cells; experiment: Cell-based porcine trabecular meshwork (PTM) assay, actin-fiber length; design: key: +++: More active than control-; ++: As active as control; +: Less active than control; −: Inactive; details: activity at 50 μM as compared to control
Protocol: Cell-based porcine trabecular meshwork (PTM) assay.
The anterior section of porcine eyes was harvested within 4 hours post-mortem. The iris and ciliary body were removed and trabecular meshwork cells were harvested by blunt dissection. Finely minced trabecular meshwork tissue was plated into collagen-coated 6-well plates in Medium-199 containing 20% fetal bovine serum (FBS). After two passages at confluence, cells were transferred to low-glucose DMEM containing 10% FBS. Cells were used between […].
Cells were plated into fibronectin-coated, glass multiwell plates the day before compound testing under standard culture conditions. Compounds were added to cells in the presence of 1% FBS-containing DMEM and 1% DMSO. When compounds were incubated with the cells for the duration determined to be optimal, the media and compound is removed and cells fixed for 20 minutes in 3% methanol-free paraformaldehyde. Cells were rinsed twice with phosphate buffered saline (PBS) and cells are permeabilized with 0.5% Triton X-100 for two minutes. Following an additional two washes with PBS, F-actin was stained with Alexa-fluor 488-labelled phalloidin and nuclei are stained with DAPI.
Data was reduced to the mean straight actin-fiber length and normalized to DMSO-treated control cells (100%) and 50 μM Y-27632 (0%). Y-27632 is a rho-kinase inhibitor known to result in the depolymerization of F-actin in these cells.
The cellular assay described in Reference Example Two was used to test some of the foregoing Examples 1-101, the results of which are presented below. The results are provided in terms activity at 50 μM as compared to control

[2] = target: T1, hGRK-2 (Homo sapiens, UniProt P25098); experiment: luciferase-based (Kinase-Glo) biochemical kinase inhibition assay, hGRK-2; details: luciferase assay, casein substrate, 10 μM ATP; read-out: GRK-2 inhibition, Ki class
T1 sequence (P25098 1-689): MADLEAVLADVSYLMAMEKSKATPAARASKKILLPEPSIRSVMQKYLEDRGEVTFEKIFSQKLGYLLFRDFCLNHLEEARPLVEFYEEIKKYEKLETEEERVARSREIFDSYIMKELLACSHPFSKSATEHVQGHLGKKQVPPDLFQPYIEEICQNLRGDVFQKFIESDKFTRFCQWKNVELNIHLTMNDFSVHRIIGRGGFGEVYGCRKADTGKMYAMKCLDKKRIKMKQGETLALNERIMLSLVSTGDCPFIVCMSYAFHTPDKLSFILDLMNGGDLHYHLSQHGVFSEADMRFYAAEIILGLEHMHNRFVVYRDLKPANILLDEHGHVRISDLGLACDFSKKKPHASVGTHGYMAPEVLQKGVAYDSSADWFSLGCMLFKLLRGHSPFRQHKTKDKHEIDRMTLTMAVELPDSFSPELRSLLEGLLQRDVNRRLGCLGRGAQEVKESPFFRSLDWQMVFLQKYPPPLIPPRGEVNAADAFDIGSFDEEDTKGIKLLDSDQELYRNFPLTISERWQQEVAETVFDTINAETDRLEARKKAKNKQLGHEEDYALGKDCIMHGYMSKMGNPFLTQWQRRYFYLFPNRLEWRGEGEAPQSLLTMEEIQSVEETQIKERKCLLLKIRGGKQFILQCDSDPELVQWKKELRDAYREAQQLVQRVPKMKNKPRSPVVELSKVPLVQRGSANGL
In short: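 Final conditions: 50 nM hGRK2, 20 μM casein, 10 μM ATP and 50 μM test compound in 4.5% DMSO, in HEPES pH 7.5 buffer with MgCl2, orthovanadate, CHAPS, BSA and DTT. Incubation ran 90-120 min at room temperature, targeting 20-30% ATP consumption. Remaining ATP was read by luminescence with diluted Kinase-Glo containing 0.01% trypan blue.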

[3] = target: T2, GRK-3 (Homo sapiens, UniProt P35626); experiment: luciferase-based biochemical kinase inhibition assay, GRK-3; details: same luciferase assay; read-out: GRK-3 inhibition, Ki class
T2 sequence (P35626 1-688): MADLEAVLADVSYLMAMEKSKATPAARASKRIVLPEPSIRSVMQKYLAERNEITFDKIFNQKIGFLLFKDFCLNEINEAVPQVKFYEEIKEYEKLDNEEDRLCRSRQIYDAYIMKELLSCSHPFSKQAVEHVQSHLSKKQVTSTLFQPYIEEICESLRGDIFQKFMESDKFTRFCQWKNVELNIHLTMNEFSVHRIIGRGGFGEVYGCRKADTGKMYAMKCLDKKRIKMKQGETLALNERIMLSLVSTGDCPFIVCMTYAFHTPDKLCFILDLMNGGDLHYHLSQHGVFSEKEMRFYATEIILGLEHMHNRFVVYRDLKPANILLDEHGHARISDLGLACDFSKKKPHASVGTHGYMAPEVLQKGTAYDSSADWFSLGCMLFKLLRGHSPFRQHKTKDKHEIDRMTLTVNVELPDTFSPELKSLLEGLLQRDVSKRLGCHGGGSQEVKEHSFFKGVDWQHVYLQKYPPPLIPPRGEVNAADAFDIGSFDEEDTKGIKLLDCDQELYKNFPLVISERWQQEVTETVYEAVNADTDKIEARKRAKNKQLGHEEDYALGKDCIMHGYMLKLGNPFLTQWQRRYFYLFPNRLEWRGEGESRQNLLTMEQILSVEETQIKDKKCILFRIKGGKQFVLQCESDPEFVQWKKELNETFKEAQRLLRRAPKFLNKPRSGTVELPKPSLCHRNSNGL
Protocol: (§1) The inhibition of G-protein-coupled receptor kinases including hGRK-2 was determined for the hydrazide compounds using a biochemical assay. The inhibition of GRK-3, GRK-5 and GRK-6 was also determined using the same assay for some of the hydrazide derivatives.
(§2) The protein kinase inhibition was determined using a biochemical assay utilizing the light emission of a luciferase reaction. The luciferase-based assay operates on the following reaction principles: [drawing 10]
(§3) An inhibitor of GRK-2 will increase in the amount of ATP in solution, as shown. Thus, an inhibitor of GRK-2 will drive the luciferase reaction to the right, resulting in more light emitted. The amount of light emitted is proportional to the inhibition resulting from the GRK-2 inhibitor. The luciferase-based assay was also used to test some of the hydrazides for the inhibition properties towards other kinases.

[4] = target: GRK-6 (Homo sapiens, UniProt P43250); experiment: luciferase-based biochemical kinase inhibition assay, GRK-6; details: same luciferase assay; read-out: GRK-6 inhibition, Ki class
Protocol: as §1, §2, §3

[5] = target: GRK-5 (Homo sapiens, UniProt P34947); experiment: luciferase-based biochemical kinase inhibition assay, GRK-5; details: same luciferase assay; read-out: GRK-5 inhibition, Ki class
Protocol: The inhibition of G-protein-coupled receptor kinases including hGRK-2 was determined for the hydrazide compounds using a biochemical assay. […] The inhibition of GRK-3, GRK-5 and GRK-6 was also determined using the same assay for some of the hydrazide derivatives.
as §2, §3

GRK-5, sequence (P34947 whole entry, species assumed): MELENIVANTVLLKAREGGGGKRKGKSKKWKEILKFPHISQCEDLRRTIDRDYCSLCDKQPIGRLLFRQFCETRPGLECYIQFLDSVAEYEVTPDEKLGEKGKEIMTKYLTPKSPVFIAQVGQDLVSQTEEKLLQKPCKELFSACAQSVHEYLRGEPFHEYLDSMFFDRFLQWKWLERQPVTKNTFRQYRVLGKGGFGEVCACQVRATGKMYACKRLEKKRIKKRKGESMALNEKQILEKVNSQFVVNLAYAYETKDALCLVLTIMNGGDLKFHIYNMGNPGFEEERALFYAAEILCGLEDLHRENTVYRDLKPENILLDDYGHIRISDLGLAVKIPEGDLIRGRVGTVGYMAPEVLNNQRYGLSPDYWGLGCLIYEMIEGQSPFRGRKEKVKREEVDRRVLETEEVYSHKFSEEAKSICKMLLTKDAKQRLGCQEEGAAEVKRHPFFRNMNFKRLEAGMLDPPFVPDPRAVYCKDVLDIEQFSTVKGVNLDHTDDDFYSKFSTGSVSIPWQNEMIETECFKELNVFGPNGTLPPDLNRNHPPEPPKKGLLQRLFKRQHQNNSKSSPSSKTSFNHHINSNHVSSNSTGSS
GRK-6, sequence (P43250 whole entry, species assumed): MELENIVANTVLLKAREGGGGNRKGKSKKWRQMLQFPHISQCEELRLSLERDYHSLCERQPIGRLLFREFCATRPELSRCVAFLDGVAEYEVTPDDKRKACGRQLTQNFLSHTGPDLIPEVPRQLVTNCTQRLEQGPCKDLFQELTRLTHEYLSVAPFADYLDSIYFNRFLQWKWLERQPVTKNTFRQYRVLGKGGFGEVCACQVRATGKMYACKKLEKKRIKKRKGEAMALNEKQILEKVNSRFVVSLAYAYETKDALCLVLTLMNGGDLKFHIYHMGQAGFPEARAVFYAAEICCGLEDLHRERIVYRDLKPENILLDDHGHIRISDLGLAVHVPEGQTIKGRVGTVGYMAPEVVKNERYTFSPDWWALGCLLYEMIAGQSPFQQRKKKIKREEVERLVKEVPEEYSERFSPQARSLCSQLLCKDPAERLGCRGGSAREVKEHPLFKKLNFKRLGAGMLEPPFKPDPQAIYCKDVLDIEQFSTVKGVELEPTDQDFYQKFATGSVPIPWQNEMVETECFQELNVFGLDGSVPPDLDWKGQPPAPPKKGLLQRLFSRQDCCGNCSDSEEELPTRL

O=C(CNc1ccc(Oc2ccccc2)cc1)N/N=C/c1c(Cl)cncc1Cl
PTM Cell Assay Result [1]: +

COc1cc(/C=N/NC(=O)CNc2cccc(Cl)c2)nc(OC)n1
PTM Cell Assay Result [1]: +

COc1ccc(Oc2cccc(NCC(=O)N/N=C/c3ccncc3)c2)cc1
PTM Cell Assay Result [1]: +

COc1cccc(NCC(=O)N/N=C/c2c(Cl)cncc2Cl)c1 [Example 5, (3-Methoxy-phenylamino)-acetic acid [1-(3,5-dichloro-pyridin-4-yl)-meth-(E)-ylidene]-hydrazide]
Ki [2]: 10 to 100 nM
Ki [3]: 10 to 100 nM
Ki [4]: > 10000 nM

O=C(CNc1cccc(OCc2ccccc2)c1)N/N=C/c1c(Cl)cncc1Cl [Example 9, (3-Benzyloxy-phenylamino)-acetic acid [1-(3,5-dichloro-pyridin-4-yl)-meth-(E)-ylidene]-hydrazide]
Ki [2]: 100 to 1000 nM
Ki [5]: 1000 to 10000 nM
Ki [3]: 100 to 1000 nM
Ki [4]: > 10000 nM

CNC(=O)c1cccc(NCC(=O)N/N=C/c2c(Cl)cncc2Cl)c1 [Example 13, 3-{[1-(3,5-Dichloro-pyridin-4-yl)-meth-(E)-ylidene-hydrazinocarbonylmethyl]-amino}-N-methyl-benzamide]
Ki [2]: 100 to 1000 nM
Ki [5]: 1000 to 10000 nM
Ki [3]: 100 to 1000 nM
Ki [4]: > 10000 nM

O=C(CNc1cccc(Oc2ccccc2)c1)N/N=C/c1c(Cl)cncc1Cl [Example 15, (3-Phenoxy-phenylamino)-acetic acid [1-(3,5-dichloro-pyridin-4-yl)-meth-(E)-ylidene]-hydrazide]
Ki [2]: 100 to 1000 nM
Ki [5]: 1000 to 10000 nM
Ki [3]: 100 to 1000 nM
Ki [4]: > 10000 nM

COc1cccc(NCC(=O)N/N=C/c2ccncc2)c1 [Example 43, (3-Methoxy-phenylamino)-acetic acid [1-pyridin-4-yl-meth-(E)-ylidene]-hydrazide]
Ki [2]: 10 to 100 nM
Ki [5]: 1000 to 10000 nM
Ki [3]: 10 to 100 nM
Ki [4]: > 10000 nM

O=C(CNc1cccc(OCc2ccccc2)c1)N/N=C/c1ccncc1 [Example 47, (3-Benzyloxy-phenylamino)-acetic acid [1-pyridin-4-yl-meth-(E)-ylidene]-hydrazide]
Ki [2]: 100 to 1000 nM
Ki [5]: 1000 to 10000 nM
Ki [3]: 100 to 1000 nM

CSc1cccc(NCC(=O)N/N=C/c2ccncc2)c1 [Example 48, (3-Methylsulfanyl-phenylamino)-acetic acid [1-pyridin-4-yl-meth-(E)-ylidene]-hydrazide]
Ki [2]: 100 to 1000 nM
Ki [5]: > 10000 nM
Ki [3]: 100 to 1000 nM

CNC(=O)c1cccc(NCC(=O)N/N=C/c2ccncc2)c1 [Example 52, N-Methyl-3-{[1-pyridin-4-yl-meth-(E)-ylidene-hydrazinocarbonylmethyl]-amino}-benzamide]
Ki [2]: 100 to 1000 nM
Ki [5]: > 10000 nM
Ki [3]: 100 to 1000 nM

O=C(CNc1cccc(Oc2ccccc2)c1)N/N=C/c1ccncc1 [Example 55, (3-Phenoxy-phenylamino)-acetic acid [1-pyridin-4-yl-meth-(E)-ylidene]-hydrazide]
Ki [2]: 100 to 1000 nM
Ki [5]: > 10000 nM
Ki [3]: 100 to 1000 nM
Ki [4]: > 10000 nM

NS(=O)(=O)c1cccc(NCC(=O)N/N=C/c2ccncc2)c1 [Example 63, 3-{[1-Pyridin-4-yl-meth-(E)-ylidene-hydrazinocarbonylmethyl]-amino}-benzenesulfonamide]
Ki [2]: 100 to 1000 nM
Ki [5]: > 10000 nM
Ki [3]: 1000 to 10000 nM

C/C(=N\NC(=O)CNc1cccc(OCc2ccccc2)c1)c1ccncc1 [Example 87, (3-Benzyloxy-phenylamino)-acetic acid [1-pyridin-4-yl-eth-(E)-ylidene]-hydrazide]
Ki [2]: 100 to 1000 nM
Ki [5]: > 10000 nM
Ki [3]: 100 to 1000 nM

COc1cccc(NCC(=O)N/N=C(\C)c2ccncc2)c1 [Example 88, (3-Methoxy-phenylamino)-acetic acid [1-pyridin-4-yl-eth-(E)-ylidene]-hydrazide]
Ki [2]: 100 to 1000 nM
Ki [5]: 1000 to 10000 nM
Ki [3]: 100 to 1000 nM
Ki [4]: > 10000 nM

C/C(=N\NC(=O)CNc1cccc(Oc2ccccc2)c1)c1ccncc1 [Example 89, (3-Phenoxy-phenylamino)-acetic acid [1-pyridin-4-yl-eth-(E)-ylidene]-hydrazide]
Ki [2]: 100 to 1000 nM
Ki [5]: > 10000 nM
Ki [3]: 100 to 1000 nM

C/C(=N\NC(=O)CNc1cccc(C(=O)Nc2ccccc2)c1)c1ccncc1 [Example 90, N-Phenyl-3-{[1-pyridin-4-yl-eth-(E)-ylidene-hydrazinocarbonylmethyl]-amino}-benzamide]
Ki [2]: 100 to 1000 nM
Ki [5]: > 10000 nM
Ki [3]: 100 to 1000 nM

O=C(CNc1cccc(C(=O)Nc2ccccc2)c1)N/N=C/c1c(Cl)cncc1Cl [Example 97, 3-{[1-(3,5-Dichloro-pyridin-4-yl)-meth-(E)-ylidene-hydrazinocarbonylmethyl]-amino}-N-phenyl-benzamide]
Ki [2]: 100 to 1000 nM
Ki [5]: 1000 to 10000 nM
Ki [3]: 10 to 100 nM

O=C(CNc1cccc(C(=O)Nc2ccccc2)c1)N/N=C/c1c(Cl)cncc1Cl [drawing 112]
PTM Cell Assay Result [1]: ++

O=C(CNc1cccc(C(=O)Nc2ccccc2)c1)N/N=C/c1ccncc1 [drawing 113]
PTM Cell Assay Result [1]: ++

O=C(CNc1cccc(C(=O)Nc2cccnc2)c1)N/N=C/c1ccncc1 [drawing 114]
PTM Cell Assay Result [1]: ++

O=C(CNc1cccc(C(=O)NCCN2CCOCC2)c1)N/N=C/c1c(Cl)cncc1Cl [drawing 116]
PTM Cell Assay Result [1]: +

CNC(=O)c1cccc(NCC(=O)N/N=C/c2c(Cl)cncc2Cl)c1 [drawing 118]
PTM Cell Assay Result [1]: +

C/C(=N\NC(=O)CNc1cccc(C(=O)Nc2ccccc2)c1)c1ccncc1 [drawing 119]
PTM Cell Assay Result [1]: +
